In patent US20110105554A1, “MEANS FOR TREATING MYOSIN-RELATED DISEASES” (KINARIS BIOMEDICALS GMBH, priority 2007, published 2011):
Entries after “also recorded” stand apart in the source; their conditions may differ.

Experiments:
[1] = test system: Plasmodium sporozoites; experiment: Plasmodium sporozoite motility (in vitro imaging); format: cell-based
Text: FIG. 20: (a) Plasmodium sporozoites adopt motility states, shown in the photos from the left to the right, attached, waving, clockwise (CW), and counterclockwise (CCW). In the absence of inhibitors sporozoites preferably move CW and CCW at 0.97 μm/s and 1.13 μm/s.
Plasmodium sporozoites are moving at very low speed in the salivary glands of infected mosquitoes but are moving at high speed (2 μm/s) upon transmission into the vertebrate host. […] We followed single parasites using in vitro imaging approaches in combination with our bioactive compounds and discovered some intriguing features of sporozoite motility. Under normal conditions sporozoites move in circles, either counterclockwise or clockwise. Two other states of attachment and waving are less populated.

[2] = test system: Plasmodium merozoites; experiment: In vitro growth assay, blood stages of malaria; format: cell-based; settings: 25 μM
[3] = Development toxicity testing on medaka embryos; settings: medaka, in vivo
Protocol: (§1) (a) KIN-43 in concentrations between 0.5 μM and 100 μM were incubated for 48 h with 20 medaka embryos per concentration. […] (b) Light microscopy image of embryo after 48 h in the absence of KIN-43.
(§2) We are using a library of common organic molecules and functional groups and are applying an empirical force field description of the nonbonding interactions between a ligand and the binding site in order to build up de novo compounds with spatial and electrostatic properties complementary to the allosteric binding site.

[4] = test system: medaka embryos; experiment: Development toxicity testing on medaka embryos
Protocol: as §1, §2

[5] = in vitro; settings: human
Protocol: (§3) Cytotoxicity may be assayed by determining the cellular uptake of neutral red. Only living cells are capable of neutral red uptake via an active transport mechanism. For an exemplary workflow of a cytotoxicity assay, see FIG. 16.
(§4) FIG. 16: Cytotoxicity assay.
(§5) FIG. 22: Cytotoxic testing of KIN-compounds by neutral red uptake assays. (a) human hepatocyte carcinoma cells (Hep G2) were exposed to KIN-43 for 4 h in the in presence of 1% FBS.
as §2

[6] = test system: human hepatocyte carcinoma cells (Hep G2); experiment: in vitro
Protocol: as §3, §4, §5, §2

[7] = biological target: T1, Dictyostelium myosin-2 (Dictyostelium discoideum, UniProt P08799, C312Y/S249N); experiment: Actin-activated ATPase activity (NADH-coupled assay), Dictyostelium myosin-2; format: biochemical; settings: 30 μM actin; read-out: IC50, ATPase activity in the presence of actin
T1 construct: comprising amino acids 1-698, 1-765, and 1-839 respectively; made in house
Protocol: Based on the structure of the myosin-2 motor domain with bound PBP, we performed molecular modeling studies to elucidate the specificity of PBP-binding to myosins from different classes. […] To test the predictions from the modeling studies, we determined actin-activated ATPase activities in the presence of 0 to 150 μM PBP with rabbit skeletal myosin-2 heavy meromyosin (HMM), myosin-5a isolated from chicken brain, and recombinant Dictyostelium myosin class-1, 2 and 5 motor-domain constructs (FIG. 9a). […] The concentrations of PBP required for half-maximal inhibition of the different myosin motors was calculated from fitting the data to hyperbolae. […] To determine the extend to which PBP impairs the coupling between the actin- and nucleotide-binding sites of myosin, we measured the ATP turn-over rates of Dictyostelium myosin-2 and myosin-5b motor domain constructs over the range from 0 to 50 μM F-actin in the absence and presence of 25 μM PBP.
Values for the rate of maximum ATP turnover (kcat), the concentration of F-actin at which half-maximal activation is achieved (Kapp), and the apparent second order rate constant for actin binding (kcat/Kapp) were estimated from a fit of the data to a hyperbolic function. kcat/Kapp is a direct measure of the coupling efficiency between actin and nucleotide binding and can be determined from the initial slope at F-actin concentrations much smaller than Kapp. […] ATP turn-over rates of Dictyostelium myosin-2 (◯) and Dictyostelium myosin-5b (▪) at increasing F-actin concentrations in the absence (filled symbols) and presence (open symbols) of 25 μM pentabromopseudilin (FIG. 9b):
Protein preparation. Rabbit fast skeletal muscle heavy meromyosin (HMM) was prepared as described by Kron and Spudich^9. Motor domain constructs of myosin-1E, myosin-2, and myosin-5b from Dictyostelium discoideum comprising amino acids 1-698, 1-765, and 1-839 respectively, were prepared as described previouslyl^10-12. Myosin-5a heavy meromyosin from chicken brain was provided by Dr. T. Scholz (Hannover Medical School, Germany) and F-actin was prepared as described by Lehrer and Kerwar^13.
Steady-state kinetics. Basal and actin-activated Mg^2+-ATPase activities were measured with the NADH-coupled assay^19 in a buffer containing 25 mM HEPES, 25 mM KCl, and 4 mM MgCl2, 0.5 mM DTT at pH 7.0 in the presence of 1 mM ATP at 25° C. PBP was added to the reaction mixture in the absence of nucleotide and incubated for 20 minutes before the reaction was started by the addition of ATP. NADH oxidation was followed using the change in absorption at 340 nm in a Beckman DU-800 spectrophotometer.

[8] = biological target: T2, Dictyostelium myosin-2 (Dictyostelium discoideum, UniProt P08799, C312Y/S249N); experiment: Basal ATPase activity, Dictyostelium myosin-2; format: biochemical
T2 construct: comprising amino acids 1-698, 1-765, and 1-839 respectively; made in house
T2 sequence (P08799 1-765 S249N/C312Y): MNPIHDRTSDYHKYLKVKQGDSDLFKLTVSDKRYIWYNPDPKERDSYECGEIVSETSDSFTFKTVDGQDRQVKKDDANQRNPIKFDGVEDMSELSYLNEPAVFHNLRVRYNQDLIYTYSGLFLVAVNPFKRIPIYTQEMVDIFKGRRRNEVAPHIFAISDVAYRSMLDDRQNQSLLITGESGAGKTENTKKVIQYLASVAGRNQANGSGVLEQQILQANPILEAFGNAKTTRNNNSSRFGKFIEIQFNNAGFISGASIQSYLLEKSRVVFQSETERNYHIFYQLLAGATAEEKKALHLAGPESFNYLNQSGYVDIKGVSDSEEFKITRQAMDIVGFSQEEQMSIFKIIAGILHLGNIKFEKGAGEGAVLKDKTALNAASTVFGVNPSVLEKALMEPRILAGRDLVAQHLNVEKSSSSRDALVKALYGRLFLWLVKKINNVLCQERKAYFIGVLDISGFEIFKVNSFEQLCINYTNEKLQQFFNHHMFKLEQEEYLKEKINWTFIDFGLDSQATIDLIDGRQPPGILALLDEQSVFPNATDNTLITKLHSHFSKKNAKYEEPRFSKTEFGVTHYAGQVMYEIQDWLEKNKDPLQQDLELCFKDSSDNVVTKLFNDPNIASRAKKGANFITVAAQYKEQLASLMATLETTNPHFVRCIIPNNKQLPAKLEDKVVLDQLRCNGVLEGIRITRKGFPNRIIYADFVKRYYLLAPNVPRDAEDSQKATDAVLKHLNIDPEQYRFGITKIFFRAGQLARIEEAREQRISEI
Protocol: (a) Concentrations of […] in the range from 1 to 50 μM activate the basal ATPase activity of Dictyostelium myosin-2 with an apparent half maximum activation constant AC50 of 18 μM. At concentrations of KIN-74>50 μM the basal ATPase activity of Dictyostelium myosin-2 is inhibited with IC50=90 μM.
Compounds KIN-74, KIN-77 are activators of myosin-2 function. KIN-74 activates the ATPase activity of Dictyostelium myosin-2 in the absence of actin. ATPase activity is uncoupled from motor activity in this situation. The apparent half-maximum activation constant AC50 corresponds to 18 μM. Uncouplers have potential applications in inhibiting the overcontraction and overextension of cardiac muscles without being accompanied with a cardioinhibitory action. Therefore, compounds derived from KIN-74 have potential applications in the treatment of acute myocardial infarction helping to prevent the necrosis of cardiac muscles.

[9] = biological target: T3, Dictyostelium myosin-1E (Dictyostelium discoideum, UniProt Q03479); experiment: Basal ATPase activity, Dictyostelium myosin-1E; format: biochemical; settings: read-out: concentration required for half-maximal inhibition of basal ATPase activity
T3 construct: comprising amino acids 1-698, 1-765, and 1-839 respectively; made in house
Text: (§6) FIG. 18: KIN-68-inhibition of the basal ATPase activity of Dictyostelium myosin-1E and myosin-5b.

[10] = biological target: T4, Dictyostelium myosin-5b (Dictyostelium discoideum, UniProt P54697); experiment: Basal ATPase activity, Dictyostelium myosin-5b; format: biochemical; settings: read-out: concentration required for half-maximal inhibition of basal ATPase activity
T4 construct: comprising amino acids 1-698, 1-765, and 1-839 respectively; made in house
Text: as §6

[11] = test system: myosin-1 isoforms; experiment: Selectivity for myosin isoforms (Example 3), myosin-1; format: biochemical
Text: In this context, preferred selectivity means a more than 20-fold smaller IC50 value compared to fast skeletal muscle myosin-2 and other references myosins.

T3 sequence (Q03479 1-698): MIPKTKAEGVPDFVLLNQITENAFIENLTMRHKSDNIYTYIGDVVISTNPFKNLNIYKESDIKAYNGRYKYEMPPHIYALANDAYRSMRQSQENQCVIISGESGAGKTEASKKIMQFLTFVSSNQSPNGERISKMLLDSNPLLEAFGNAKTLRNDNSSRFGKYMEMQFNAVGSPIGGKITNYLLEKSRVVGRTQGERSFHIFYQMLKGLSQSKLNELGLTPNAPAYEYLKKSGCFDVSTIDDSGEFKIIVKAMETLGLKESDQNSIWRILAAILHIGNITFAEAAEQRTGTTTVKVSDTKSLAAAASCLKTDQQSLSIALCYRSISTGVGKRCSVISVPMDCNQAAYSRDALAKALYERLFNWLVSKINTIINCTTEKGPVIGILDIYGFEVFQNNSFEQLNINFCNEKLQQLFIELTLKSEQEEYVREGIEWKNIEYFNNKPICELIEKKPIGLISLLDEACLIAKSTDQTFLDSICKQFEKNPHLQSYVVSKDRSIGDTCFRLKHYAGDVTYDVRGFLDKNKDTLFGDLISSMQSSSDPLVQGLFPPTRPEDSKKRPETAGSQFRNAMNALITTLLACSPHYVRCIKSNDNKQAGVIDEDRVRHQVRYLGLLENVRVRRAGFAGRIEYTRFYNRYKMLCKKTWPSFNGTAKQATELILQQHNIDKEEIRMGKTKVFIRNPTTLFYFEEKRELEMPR
T4 sequence (P54697 1-839): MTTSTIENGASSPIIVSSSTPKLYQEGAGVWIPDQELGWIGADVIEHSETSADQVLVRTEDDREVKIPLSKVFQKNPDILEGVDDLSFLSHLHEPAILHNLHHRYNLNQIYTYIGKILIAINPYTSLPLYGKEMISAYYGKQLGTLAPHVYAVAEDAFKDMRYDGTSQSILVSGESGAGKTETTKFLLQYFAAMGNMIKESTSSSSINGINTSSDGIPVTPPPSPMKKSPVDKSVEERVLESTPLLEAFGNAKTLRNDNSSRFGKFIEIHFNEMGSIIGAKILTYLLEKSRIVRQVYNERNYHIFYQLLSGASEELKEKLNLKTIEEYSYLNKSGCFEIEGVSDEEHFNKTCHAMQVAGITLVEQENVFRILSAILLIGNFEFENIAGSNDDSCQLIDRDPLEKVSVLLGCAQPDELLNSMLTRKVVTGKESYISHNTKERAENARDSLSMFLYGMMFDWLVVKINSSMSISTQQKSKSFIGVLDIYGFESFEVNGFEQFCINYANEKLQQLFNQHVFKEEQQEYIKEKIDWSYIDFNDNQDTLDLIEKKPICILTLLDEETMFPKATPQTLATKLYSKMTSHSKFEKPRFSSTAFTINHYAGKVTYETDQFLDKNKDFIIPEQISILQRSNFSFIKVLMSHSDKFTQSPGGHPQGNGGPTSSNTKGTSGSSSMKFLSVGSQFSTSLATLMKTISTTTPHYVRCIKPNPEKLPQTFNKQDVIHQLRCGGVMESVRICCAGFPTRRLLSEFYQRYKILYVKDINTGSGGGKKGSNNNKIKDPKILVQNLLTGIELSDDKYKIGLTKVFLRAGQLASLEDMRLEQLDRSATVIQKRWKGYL

SMILES: Oc1cc(F)c(F)c2c1[nH]c1ccc(F)cc12 [KIN-93]
- general cytotoxicity for erythrocytes or for Plasmodium sporozoites [1]: No general cytotoxicity
- gliding velocity compared with control parasites ([1]; 10 μM): only half as fast
- motility states of the sporozoite population ([1]; 10 μM): switched the population to attached and waving states; also recorded: strongly reduced
- velocity of clockwise (CW) motility ([1]; 0.97 μm/s without inhibitor): 0.58 μm/s
- velocity of counterclockwise (CCW) motility ([1]; 1.13 μm/s without inhibitor): 0.59 μm/s
- effect on the blood stages of malaria [2]: reducing the number of Plasmodium merozoites
- LC50 at 48 h [3]: > 50 µM
- lethal effect on medaka embryos ([4]; below 50.0 μM): no lethal effect
- embryonic development ([4]; in vivo): not impaired
- CC50 at 4 h [5]: > 50 µM
- neutral red uptake experiments, defects [6]: do not reveal any defects

SMILES: Oc1c(F)cc(F)cc1-c1[nH]c(Br)c(Br)c1Br [KIN-74, 2,3,4-tribromo-5 (1′ hydroxy, 2′,4′-difluorophenyl)pyrrole]
- IC50 [7]: 88.8 µM
- AC50 ([8]; absence of actin, 1 to 50 μM, read-out: apparent half maximum activation constant AC50, basal ATPase activity): 18 µM
- IC50 ([8]; at concentrations >50 μM): 90 µM

SMILES: Oc1c(Cl)cc(Cl)cc1-c1[nH]c(Cl)c(Cl)c1Cl [KIN-68, pentachloropseudilin]
- IC50 [9]: 55.8 µM
- IC50 [10]: 105 µM
- preferred selectivity: fold smaller IC50 compared to fast skeletal muscle myosin-2 and other reference myosins [11]: more than 20 fold
